Laboratory results taken from ChEMBL document CHEMBL3508140 (2016).

Experiments:
[1] = Terminal half-life of 4-dem-daunorubicin following intravenous 4-dem-daunorubicin at 1.0 mg.Kg-1 dose in dog; format: ADME, organism-based, Canis lupus familiaris; set-up: dose 1 mg.Kg-1, dosed compound id 2.46809e+06, dosed compound name Idarubicin, route intravenous; conditions: Beagle, plasma
[2] = Volume of distribution of 4-dem-daunorubicin following intravenous 4-dem-daunorubicin at 1.0 mg.Kg-1 dose in dog; format: ADME, organism-based, Canis lupus familiaris; set-up: dose 1 mg.Kg-1, dosed compound id 2.46809e+06, dosed compound name Idarubicin, route intravenous; conditions: Beagle, plasma
[3] = Plasma clearance of 4-dem-daunorubicin following intravenous 4-dem-daunorubicin at 1.0 mg.Kg-1 dose in dog; format: ADME, organism-based, Canis lupus familiaris; set-up: dose 1 mg.Kg-1, dosed compound id 2.46809e+06, dosed compound name Idarubicin, route intravenous; conditions: Beagle, read-out: Clp
[4] = Mortality occurred following intravenous idarubicin at 0.6 mg.Kg-1 per week in rat; format: toxicity, organism-based, SD; set-up: dose 0.6 mg.Kg-1, dosed compound id 2.46809e+06, dosed compound name Idarubicin, dose level Intermediate, gender Mixed, regimen Once per week, route intravenous, sampling time 13 Week, study doses 0/0.3/0.6/1 mg.Kg-1; conditions: in vivo
[5] = (§1) Decrease in leukocytes observed following intravenous idarubicin at 0.3 mg.Kg-1 per week in rat; format: toxicity, organism-based, SD, Blood; set-up: dose 0.3 mg.Kg-1, dosed compound id 2.46809e+06, dosed compound name Idarubicin, dose level Low, gender Mixed, regimen Once per week, route intravenous, sampling time 8 Week, study doses 0/0.3/0.6/1 mg.Kg-1; conditions: in vivo
[6] = (§2) Decrease in leukocytes observed following intravenous idarubicin at 0.6 mg.Kg-1 per week in rat; format: toxicity, organism-based, SD, Blood; set-up: dose 0.6 mg.Kg-1, dosed compound id 2.46809e+06, dosed compound name Idarubicin, dose level Intermediate, gender Mixed, regimen Once per week, route intravenous, sampling time 4 Week, study doses 0/0.3/0.6/1 mg.Kg-1; conditions: in vivo
[7] = Increase in serum triglycerides level following intravenous idarubicin at 0.3 mg.Kg-1 per week in rat; format: toxicity, organism-based, SD; set-up: dose 0.3 mg.Kg-1, dosed compound id 2.46809e+06, dosed compound name Idarubicin, dose level Low, gender Mixed, regimen Once per week, route intravenous, sampling time 8-22 Week, study doses 0/0.3/0.6/1 mg.Kg-1; conditions: in vivo
[8] = Increase in serum triglycerides level following intravenous idarubicin at 0.6 mg.Kg-1 per week in rat; format: toxicity, organism-based, SD; set-up: dose 0.6 mg.Kg-1, dosed compound id 2.46809e+06, dosed compound name Idarubicin, dose level Intermediate, gender Mixed, regimen Once per week, route intravenous, sampling time 8-22 Week, study doses 0/0.3/0.6/1 mg.Kg-1; conditions: in vivo
[9] = Increase in serum total cholesterol level following intravenous idarubicin at 0.3 mg.Kg-1 per week in rat; format: toxicity, organism-based, SD; set-up: dose 0.3 mg.Kg-1, dosed compound id 2.46809e+06, dosed compound name Idarubicin, dose level Low, gender Mixed, regimen Once per week, route intravenous, sampling time 8-22 Week, study doses 0/0.3/0.6/1 mg.Kg-1; conditions: in vivo
[10] = Increase in serum total cholesterol level following intravenous idarubicin at 0.6 mg.Kg-1 per week in rat; format: toxicity, organism-based, SD; set-up: dose 0.6 mg.Kg-1, dosed compound id 2.46809e+06, dosed compound name Idarubicin, dose level Intermediate, gender Mixed, regimen Once per week, route intravenous, sampling time 8-22 Week, study doses 0/0.3/0.6/1 mg.Kg-1; conditions: in vivo
[11] = Increase in serum phospholipid level following intravenous idarubicin at 0.3 mg.Kg-1 per week in rat; format: toxicity, organism-based, SD; set-up: dose 0.3 mg.Kg-1, dosed compound id 2.46809e+06, dosed compound name Idarubicin, dose level Low, gender Mixed, regimen Once per week, route intravenous, sampling time 8-22 Week, study doses 0/0.3/0.6/1 mg.Kg-1; conditions: in vivo
[12] = Increase in serum phospholipid level following intravenous idarubicin at 0.6 mg.Kg-1 per week in rat; format: toxicity, organism-based, SD; set-up: dose 0.6 mg.Kg-1, dosed compound id 2.46809e+06, dosed compound name Idarubicin, dose level Intermediate, gender Mixed, regimen Once per week, route intravenous, sampling time 8-22 Week, study doses 0/0.3/0.6/1 mg.Kg-1; conditions: in vivo
[13] = Incidence of persistent proteinuria following intravenous idarubicin at 0.3 mg.Kg-1 per week in rat; format: toxicity, organism-based, SD; set-up: dose 0.3 mg.Kg-1, dosed compound id 2.46809e+06, dosed compound name Idarubicin, dose level Low, gender Mixed, regimen Once per week, route intravenous, sampling time 36 Week, study doses 0/0.3/0.6/1 mg.Kg-1; conditions: in vivo
[14] = Incidence of persistent proteinuria following intravenous idarubicin at 0.6 mg.Kg-1 per week in rat; format: toxicity, organism-based, SD; set-up: dose 0.6 mg.Kg-1, dosed compound id 2.46809e+06, dosed compound name Idarubicin, dose level Intermediate, gender Mixed, regimen Once per week, route intravenous, sampling time 36 Week, study doses 0/0.3/0.6/1 mg.Kg-1; conditions: in vivo
[15] = Incidence of leukocyturia following intravenous idarubicin at 0.3 mg.Kg-1 per week in rat; format: toxicity, organism-based, SD; set-up: dose 0.3 mg.Kg-1, dosed compound id 2.46809e+06, dosed compound name Idarubicin, dose level Low, gender Mixed, regimen Once per week, route intravenous, sampling time 36 Week, study doses 0/0.3/0.6/1 mg.Kg-1; conditions: in vivo
[16] = Incidence of leukocyturia following intravenous idarubicin at 0.6 mg.Kg-1 per week in rat; format: toxicity, organism-based, SD; set-up: dose 0.6 mg.Kg-1, dosed compound id 2.46809e+06, dosed compound name Idarubicin, dose level Intermediate, gender Mixed, regimen Once per week, route intravenous, sampling time 36 Week, study doses 0/0.3/0.6/1 mg.Kg-1; conditions: in vivo
[17] = Decrease in albumin due to persistent proteinuria following intravenous idarubicin at 0.3 mg.Kg-1 per week in rat; format: toxicity, organism-based, SD, Serum; set-up: dose 0.3 mg.Kg-1, dosed compound id 2.46809e+06, dosed compound name Idarubicin, dose level Low, gender Mixed, regimen Once per week, route intravenous, sampling time 36 Week, study doses 0/0.3/0.6/1 mg.Kg-1; conditions: in vivo
[18] = Decrease in albumin due to persistent proteinuria following intravenous idarubicin at 0.6 mg.Kg-1 per week in rat; format: toxicity, organism-based, SD, Serum; set-up: dose 0.6 mg.Kg-1, dosed compound id 2.46809e+06, dosed compound name Idarubicin, dose level Intermediate, gender Mixed, regimen Once per week, route intravenous, sampling time 36 Week, study doses 0/0.3/0.6/1 mg.Kg-1; conditions: in vivo
[19] = as §1; format: toxicity, organism-based, SD, Blood; set-up: dosed compound id 2.46809e+06, dosed compound name Idarubicin, dose level Low, gender Mixed, route intravenous, sampling time 4 Week, study doses 0/0.3/0.6/1 mg.Kg-1; conditions: in vivo
[20] = as §2; format: toxicity, organism-based, SD, Blood; set-up: dosed compound id 2.46809e+06, dosed compound name Idarubicin, dose level Intermediate, gender Mixed, route intravenous, sampling time 8 Week, study doses 0/0.3/0.6/1 mg.Kg-1; conditions: in vivo

Q: For `CC(=O)[C@]1(O)Cc2c(O)c3c(c(O)c2[C@@H](O[C@H]2C[C@H](N)[C@H](O)[C@H](C)O2)C1)C(=O)c1ccccc1C3=O` [IDARUBICIN], which half-life [1] is on record?
A: Its half-life is 6 min.

Q: And the Vd [2]?
A: The Vd was 34.5 L/kg.

Q: What about the clearance [3] of the same compound?
A: Its clearance is 711 mL/min.

Q: What about the Mortality [4] of the same compound?
A: The Mortality was “OUTCOME = Observed, N_AFFECTED = 12”.

Q: And the WBC_CHANGE [5]?
A: Its WBC_CHANGE is 35%.

Q: And the WBC_CHANGE [6]?
A: Its WBC_CHANGE is 50%.

Q: What about the TRIG_CHANGE [7] of the same compound?
A: The TRIG_CHANGE was “OUTCOME = Increased”.

Q: What about the TRIG_CHANGE [8] of the same compound?
A: The TRIG_CHANGE was “OUTCOME = Increased”.

Q: What about the CHOL_CHANGE [9] of the same compound?
A: Its CHOL_CHANGE is “OUTCOME = Increased”.

Q: What about the CHOL_CHANGE [10] of the same compound?
A: The CHOL_CHANGE was “OUTCOME = Increased”.

Q: What about the PHOSLPD_CHANGE [11] of the same compound?
A: Its PHOSLPD_CHANGE is “OUTCOME = Increased”.

Q: And the PHOSLPD_CHANGE [12]?
A: Its PHOSLPD_CHANGE is “OUTCOME = Increased”.

Q: And the Incidence [13]?
A: Its Incidence is “OUTCOME = Observed”.

Q: And the Incidence [14]?
A: Its Incidence is “OUTCOME = Observed”.

Q: What about the Incidence [15] of the same compound?
A: Its Incidence is “OUTCOME = Observed”.

Q: And the Incidence [16]?
A: Its Incidence is “OUTCOME = Observed”.

Q: What about the ALB_CHANGE [17] of the same compound?
A: Its ALB_CHANGE is “OUTCOME = Decreased”.

Q: And the ALB_CHANGE [18]?
A: Its ALB_CHANGE is “OUTCOME = Decreased”.

Q: And the WBC_CHANGE [19]?
A: Its WBC_CHANGE is 35%.

Q: And the WBC_CHANGE [20]?
A: Its WBC_CHANGE is 55%.
